Source: patent publication US4732898A, “2-(2-aryl-2-oxoalkylidene) analogs of-3,5-pyridinedicarboxylic acid dialkyl esters useful for treatment of cardiovascular disorders” (Warner-Lambert Company, priority 1987, dated 1988)
Like-named read-outs stand apart in the source and are kept apart here.

Experiments:
[1] = system: isolated Langendorff rat heart; assay: inotropic and vascular activities in the isolated Langendorff rat heart preparation (CVIH); details: isolated perfused rat heart
Description: TEST FOR INOTROPIC, CHRONOTROPIC, AND VASCULAR ACTIVITIES IN THE ISOLATED LANGENDORFF RAT HEART PREPARATION (CARDIOVASCULAR ISOLATED HEART - CVIH)
Male rats (400-600 gms) are pretreated with 2000 units Na heparin (Parke-Davis) and anesthetized with Na pentobarbital (50 mg/kg, Butler Co.) administered intraperitoneally. Once anesthetized, the rat heart is rapidly excised, the ascending aorta fitted to the aorta perfusion cannula, and secured with a ligature. The coronary arteries are perfused initially at a rate of about 15 ml/min for two to three minutes, after which they are perfused at constant pressure of 70 mm Hg and temperature of 37° C. The electrocardiogram (ECG) is recorded using two platinum electrodes positioned at the base and apex of the left ventricle (LV). The LV is instrumented via the mitral valve with a 4F Millar catheter tip pressure transducer. The catheter is advanced to the apex then withdrawn slightly. Once properly positioned, the catheter is anchored to the perfusion cannulae with an alligator clip. A second heart is excised, cannulated, and perfused by the same method outlined above. Both hearts are tested in parallel. The standard physiological salt solution (PSS) is a modified Krebs Henseleit bicarbonate buffer of the following composition in mM concentration: NaCl, 127; NaHCO^3, 25; dextrose, 5.5; Na Pyruvate, 2.0; KCl, 4.7; MgSO^4, 1.1; KH 2PO^4, 1.2; CaCl^2 ·2H^2, 2.5; CaNa^2 EDTA, 0.05.
A 30-minute stabilization period is observed before starting the test protocol.
A microprocessor control system is used as a servo mechanism which permits coronary perfusion pressure (CPP) and drug concentration to be maintained constant independent of changes in coronary flow. The level at which CPP and drug concentration are maintained can be changed by commands communicated through the microprocessor keyboard. Dose-response curves are carried out by perfusing concentrated drug solution (DC) at rates proportional to total coronary flow (CFT). Drug concentrations are increased by proportionate increases in the rate of DC infusion over CFT via the microprocessor keyboard. The proportional flow rates for DC:CFT are about 0.00005:1 at the low end and 0.0015:1 at the high end of the dose response curve.
Dose-response curves encompassing at least two log units are carried out in one-half log increments starting at a subthreshold dose and ending at a dose which produces near maximal response.
Measurements for CVIH are maximum positive first derivative of LVP (LV+dP/dtmax), heart rate (HR), and coronary flow (CF). Units are: LV+dP/dtmax, millimeters of mercury/second (mm Hg/sec); HR, beats/minute (bpm) and CF, milliliters/minute (ml/min). LV+dP/dtmax is derived from the LVP signal by a differential amplifier and recorded. HR is calculated from the ECG strip chart recording and CF is calculated by recording analog outputs from pumps 1 and 2. Outputs from pump #1 =CFT and the output from pump #2 =CF for heart B (CFB). CF for heart A (CFA) is calculated ([…]). All pumps are calibrated weekly or when pump tubing is replaced.
Compounds are solubilized in DMSO and diluted with water when possible. EC^25 data are obtained from data that is digitized and averaged in a conventional manner.

dihydropyridine receptor = assay: inhibition of [3H]-nitrendipine binding in rat brain homogenate; details: read-out: IC50 (index of dihydropyridine receptor affinity; inhibition of [3H]-nitrendipine binding)
Text: *Index of dihydropyridine receptor affinity: IC50 for inhibition of
[^3 H]--nitrendipine binding in rat brain homogenate.

anesthetized dog = assay: in vivo myocardial inotropic activity in the anesthetized dog; details: 1 mg/kg, femoral vein, pentobarbital anesthetized dog
Description: TEST FOR IN VIVO MYOCARDIAL INOTROPIC ACTIVITY IN THE ANESTHETIZED DOG
Adult mongrel dogs of either sex are anesthetized with pentobarbital, 35 mg/kg, IV, and are maintained under anesthesia with a continuous infusion of pentobarbital, 3.5 mg/kg/hr. The trachea is intubated, but the animals are permitted to breathe spontaneously. A cannula is inserted into the femoral vein for administering test agents. A Millar catheter tip pressure transducer or a fluid filled catheter is inserted into the ascending aorta via the femoral artery for measuring pressure. A Millar catheter tip pressure transducer is passed into the left ventricle via the left carotid artery for measuring left ventricular blood pressure. Needle electrodes are placed subcutaneously for recording a lead II electrocardiogram. Before administering test agents, control data is acquired over a period of at least thirty minutes.
The test agent is dissolved in dimethylacetamide. Each dose is administered in a volume of 0.5 ml over a period of one minute. Appropriate vehicle controls are also administered.

[2] = system: isolated Langendorff rat heart; assay: inotropic and vascular activities in the isolated Langendorff rat heart preparation (CVIH); details: LV+dP/dtmax; isolated perfused rat heart; EC20 instead of EC25; read-out: EC20 Contractility
[3] = LV+dP/dtmax, read-out: EC25 Contractility
[4] = coronary flow, read-out: EC25 Flow

| Molecule | IC50 (dihydropyridine receptor) [nM] | EC25 [1, 3] [nM] | EC25 [1, 4] [nM] | decrease in blood pressure (anesthetized dog) [%] | increase in contractility (anesthetized dog) [%] | increase in heart rate (anesthetized dog) [%] | EC20 [2] [nM] |
| --- | --- | --- | --- | --- | --- | --- | --- |
| CCOC(=O)C1=C(C)N/C(=C\C(=O)c2ccccc2)[C@@H](C(=O)OCC)[C@@H]1c1ccccc1C(F)(F)F (relative stereo) [Example 1, (2Z,3α,4β)-(±)-Diethyl-1,2,3,4-tetrahydro-6-methyl-2-(2-oxo-2-phenylethylidene)-4-[2-(trifluoromethyl)-phenyl]-3,5-pyridinedicarboxylate] | 280 | 100 | 300 | – | – | – | – |
| CCOC(=O)C1=C(C)N/C(=C\C(=O)c2ccncc2)[C@@H](C(=O)OCC)[C@@H]1c1ccccc1C(F)(F)F (relative stereo) [Example 2] | 20 | > 3000 | < 100 | 21 | 99 | 67 | – |
| CCOC(=O)C1=C(C)N/C(=C\C(=O)c2ccc(Cl)cc2)[C@@H](C(=O)OCC)[C@@H]1c1ccccc1C(F)(F)F (relative stereo) [Example 3, (2Z,3α,4β)-Diethyl-2-[2-(4-chlorophenyl)-2-oxoethylidene]-1,2,3,4-tetrahydro-6-methyl-4-[2-(trifluoromethyl)phenyl]-3,5-pyridinedicarboxylate] | 190 | < 100 | < 100 | – | – | – | – |
| CCOC(=O)C1=C(C)N/C(=C\C(=O)c2ccc(F)cc2)[C@@H](C(=O)OCC)[C@@H]1c1ccccc1C(F)(F)F (relative stereo) [Example 4, (2Z,3α,4β)-Diethyl-2-[2-(4-fluorophenyl)-2-oxoethylidene]-1,2,3,4-tetrahydro-6-methyl-4-[2-(trifluoromethyl)phenyl]-3,5-pyridinedicarboxylate] | 52 | > 3000 | 300 | – | – | – | – |
| CCOC(=O)C1=C(C)N/C(=C\C(=O)c2ccc(C)cc2)[C@@H](C(=O)OCC)[C@@H]1c1ccccc1C(F)(F)F (relative stereo) [Example 5, (2Z,3α,4β)-Diethyl-2-[2-(4-methylphenyl)-2-oxoethylidene]-1,2,3,4-tetrahydro-6-methyl-4-[2(trifluoromethyl)phenyl]-3,5-pyridinedicarboxylate] | 360 | > 3000 | 130 | – | – | – | – |
| CCOC(=O)C1=C(C)N/C(=C\C(=O)c2ccc(N(C)C)cc2)[C@@H](C(=O)OCC)[C@@H]1c1ccccc1C(F)(F)F (relative stereo) [Example 6, (2Z,3α,4β)-(±) -Diethyl-1,2,3,4-tetrahydro-6-methyl-2-[2-oxo-2-4-(dimethylamino)phenyl)ethylidene]-4-[2-(trifluoromethyl)phenyl]-3,5-pyridine-dicarboxylate] | – | > 3000 | 200 | – | – | – | – |
| CCOC(=O)[C@H]1/C(=C/C(=O)c2ccccc2)NC(C)=C([N+](=O)[O-])[C@@H]1c1ccccc1C(F)(F)F (relative stereo) [Example 7, (2Z,3α,4β)-(±)-1,2,3,4-Tetrahydro-6-methyl-5-nitro-2-[2-oxo-2-phenylethylidene]-4-[2-(trifluoromethyl)phenyl]-3-pyridinedicarboxylic acid ethyl ester] | 130 | > 3000 | 100 | – | – | – | – |
| (2Z,3α,4β)-(±)-Diethyl-1,2,3,4-tetrahydro-6-methyl-2-[2-oxo-2-phenylethylidene]-4-[2-nitrophenyl-3,5-pyridinedicarboxylate [Example 13] | 39 | 1000 | 1000 | – | – | – | – |

Second part, led by results:

| IC50 (dihydropyridine receptor) [nM] | Molecule | EC25 [1, 3] [nM] | EC25 [1, 4] [nM] | decrease in blood pressure (anesthetized dog) [%] | increase in contractility (anesthetized dog) [%] | increase in heart rate (anesthetized dog) [%] | EC20 [2] [nM] |
| --- | --- | --- | --- | --- | --- | --- | --- |
| 25 | CCOC(=O)C1=C(C)N/C(=C\C(=O)c2ccccc2)C(C(=O)OCC)C1c1ccccn1 (racemic) [Example 16, (2Z,3α,4β)-(±)-Diethyl-1,2,3,4-tetrahydro-6-methyl-2-[2-oxo-2-phenylethylidene]-4-[2-pyridyl]-3,5-pyridinedicarboxylate] | 1000 | 1000 | – | – | – | – |
| > 1000 | CC1=C([N+](=O)[O-])[C@H](c2ccccc2C(F)(F)F)[C@@H](C(=O)c2ccccc2)/C(=C/C(=O)c2ccccc2)N1 (relative stereo) [Example 8, [trans-(Z)]-2-[3-Benzoyl-3,4-dihydro-6-methyl-5-nitro-4-[2-(trifluoromethyl)phenyl]-2-(1H)pyridinylidene]1-phenylethanone] | > 3000 | 300 | – | – | – | – |
| 110 | CCOC(=O)C1=C(C)N/C(=C\C(=O)c2ccccc2)[C@@H](C(=O)c2ccccc2)[C@@H]1c1ccccc1C(F)(F)F (relative stereo) [Example 9, (4α,5β,6Z)-(±)-Ethyl-5-benzoyl-1,4,5,6-tetrahydro-2-methyl-6-(2-oxo-2-phenylethylidene)-4-[2-trifluoromethyl)phenyl]3-pyridinecarboxylate] | 1200 | 400 | – | – | – | – |
| > 1000 | CCOC(=O)[C@@H]1/C(=C/C(=O)c2ccccc2)NC2=C(C(=O)CCC2)[C@H]1c1ccccc1C(F)(F)F (relative stereo) [Example 10] | 2000 | 1400 | – | – | – | – |
| > 1000 | CCOC(=O)[C@@H]1/C(=C2\CCc3ccccc3C2=O)NC(C)=C(C#N)[C@H]1c1ccccc1C(F)(F)F (relative stereo) [Example 11] | – | 1000 | – | – | – | 1000 |
| > 1000 | CCOC(=O)C1=C(C)NC(=C2CCc3ccccc3C2=O)[C@@H](C(=O)OCC)[C@@H]1c1ccccc1C(F)(F)F (relative stereo) [Example 12] | – | – | – | – | – | – |
| 85 | CCOC(=O)C1=C(C)N/C(=C\C(=O)c2ccccc2)[C@@H](C(=O)OCC)[C@@H]1c1cccc([N+](=O)[O-])c1 (relative stereo) [Example 14, (2Z,3α,4β)-(±)-Diethyl-1,2,3,4-tetrahydro-6-methyl-2-[2-oxo-2-phenylethylidene]-4-[3-nitrophenyl]-3,5-pyridinedioarboxylate] | 1000 | 1000 | – | – | – | – |
| 180 | CCOC(=O)C1=C(C)N/C(=C\C(=O)c2ccccc2)[C@@H](C(=O)OCC)[C@@H]1c1cccc(Cl)c1Cl (relative stereo) [Example 15, (2Z,3α,4β)-(±)-Diethyl-1,2,3,4-tetrahydro-6-methyl-2-[2-oxo-2-phenylethylidene]-4-2,3-dichlorophenyl]-3,5-pyridinedicarboxylate] | 1000 | 1000 | – | – | – | – |
